From PubChem BioAssay AID179 (DTP/NCI, 2004)
Active and inactive are the calls of the source.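 The calls were made as follows: active = compounds giving half or more protection of infected cells from virus-caused growth loss, again on retest; inactive = the rest.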 Where a SMILES comes first, the peptide text is derived from it.

Test system: CEM cells HIV-1 protection, formazan growth assay
Assay: NCI AIDS Antiviral Assay
Conditions: for IC50: measured here: growth of uninfected CEM cells
Method in brief: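 Human CEM cells, uninfected and HIV-1-infected, received five drug concentrations, and growth was read by soluble formazan assay. Compounds giving at least 50% protection were retested; reproducible 100% protection defined confirmed active.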

SMILES | EC50 [µM] | IC50 [µM] | outcome
C[n+]1c(-c2ccc(/C=N/NC(=N)N/N=C/c3ccc(-c4cn5cc(Cl)ccc5[n+]4C)cc3)cc2)cn2cc(Cl)ccc21 | 6.46 | 155 | 
CC(=O)CC(=O)/C=C/c1cccs1 | > 257 | 178 | 
COC(=O)N/N=C(\C)CC(=O)Nc1ccc(Cl)cc1 | > 91.2 | > 91.2 | 
Nc1cc2c3c(c1)Oc1cc(N)cc4c1C3c1c(cc(N)cc1O4)O2 | > 30.9 | 23.4 | 
N[C@@H](CCC(=O)NC(Cc1ccccc1)C(=O)NCP(=O)(O)O)C(=O)O (stereo partly drawn) | > 200 | > 200 | 
CS(=O)(=O)c1cc(=O)[nH]c(=O)[nH]1 | 77.6 | 102 | 
Cc1cc(=O)oc2cc(N(C)C)ccc12 | > 67.6 | 37.2 | 
CCOC(=O)C(NC(C)=O)[CH](c1ccccc1)[Sn]([c]1ccccc1)([c]1ccccc1)[c]1ccccc1 (stereo not drawn) | > 31.6 | 7.08 | 
Cc1[nH]n(-c2nc(O)c(-c3ccccc3)c(=O)[nH]2)c(=O)c1CCO | > 200 | > 200 | 
Cc1cccc(NC(=O)Nc2ccccc2F)n1 | > 200 | > 200 | 
COC(=O)NC1(NC(=O)OC)NC(=O)c2cc(OC)c(OC)cc2N1 | > 200 | 12.9 | 
CC(=O)OC1CC2C(C)(C)C(=O)C=C[C@]2(C)C2CCC3(C)C(c4ccoc4)OC(=O)[C@H]4O[C@]43[C@]12C (stereo partly drawn) |  |  | inactive
COc1ccc2c(c1)OC(c1ccccc1O)CC2=O (stereo not drawn) | > 186 | 30.2 | 
O=C(O)c1c2ccccc2nc2[nH]c(=O)[nH]c(=O)c12 |  | 141 | inactive
CCN1C[C@]2(COC)CCC(=O)C34[C@@H]5C[C@@H]6C(O)[C@@H]5[C@](O)(C[C@@H]6OC)[C@@H](C(OC)[C@@H]32)[C@H]14 (stereo partly drawn) |  |  | inactive
COc1ccc2c(O)c(C)c(=O)n(C)c2c1 | > 200 | > 200 | 
O=C(NCCNCCNCCNC(=O)c1cc(-c2ccccc2)nc2ccccc12)c1cc(-c2ccccc2)nc2ccccc12 | > 20 | 3.31 | 
Cn1ncc2c(=O)[nH]cnc21 | > 316 | > 316 | 
COC(=O)C12CCC(C(=O)OC)(Cc3c(c4ccccc4n3S(=O)(=O)c3ccccc3)C1)C2=O (stereo not drawn) | > 200 | 85.1 | 
COc1ccc(/C=C2\N=C(SC)NC2=O)cc1 | > 200 | 107 | 
COc1cccc(CN2CCCN(/N=C/c3c4c(O)c5c(O)c(C)c6c(c5c3O)C(=O)C(C)(O/C=C/C(OC)C(C)C(OC(C)=O)C(C)C(O)C(C)C(O)C(C)/C=C/C=C(/C)C(=O)N4)O6)CC2)c1 (stereo not drawn) | > 200 | 5.01 | 
Brc1cccc[n+]1Cc1ccccc1C[n+]1ccccc1Br | > 200 | > 200 | 
C(/C=C\c1ccccc1)=NCCCCCCN=C/C=C/c1ccccc1 | > 20 | 12.3 | 

SMILES | EC50 [µM] | IC50 [µM] | outcome
COc1ccc([N+](=O)[O-])c2c(NCCC[N+](C)(C)[O-])c3ccccc3nc12 | > 200 | 3.09 | 
Nc1ccccc1C1=Nc2cncnc2NC1 | > 417 | 295 | 
CC(=O)Nc1ccccc1/C(C#N)=C/c1ccccc1 | > 200 | > 200 | 
Cc1ccc2cc(N)c3ccc(C)nc3c2n1 | > 2 | 0.309 | 
CCOP(=O)(OCC)/C(C#N)=C/c1cc(O)ccc1O | > 832 | 145 | 
O=C(CC(=O)N1N=C(N2c3ccccc3Sc3ccccc32)CC1c1ccccc1)Nc1ccccc1Cl (stereo not drawn) | > 200 | > 200 | 
C[N+]1(C)C/C(=C/c2ccc(F)cc2)C(=O)/C(=C\c2ccc(F)cc2)C1 | > 537 | 97.7 | 
O=C(O)C(F)(F)C(F)(F)C(F)(F)C(F)(F)C(F)(F)C(F)(F)C(F)(F)C(F)(F)F | > 200 | 105 | 
CCC(C)C(NC(=O)C(CCCN=C(N)N)NC(=O)C(CC(N)=O)NC(=O)C(Cc1ccc(O)cc1)NC(=O)C(N)CC(C)C)C(=O)NC(C(=O)NC(CC(C)C)C(=O)NC(CCCN=C(N)N)C(=O)NC(Cc1ccc(O)cc1)C(=O)O)C(C)CC (stereo not drawn) (H-LYNRIILRY-OH; configuration not given here) | > 40.7 | 23.4 | 
O=C1CC2(CCC(O)(c3cccs3)C(C(=O)c3cccs3)C2)C(=O)c2ccccc2N1 (stereo not drawn) | > 200 | > 200 | 
CCN(CC)P1CCP(c2ccccc2)CC1 (stereo not drawn) | > 37.2 | > 37.2 | 
COC(=O)C1(Cc2ccc3c(c2)CCC3)Cc2ccc3c(c2C1)CCC3 (stereo not drawn) | > 200 | 37.2 | 
CC1=CCC[C@H]2[C@](C)(CC3=CC(=O)C(Sc4ccccc4)=CC3=O)[C@@H](C)CC[C@]12C | > 200 | 1.32 | 
CCn1c(=O)[nH]c(=O)c2conc21 | > 1380 | 661 | 
Oc1cccc(C(O)CNC2CCCCC2)c1 (stereo not drawn) | > 200 | > 200 | 
CCOP(=S)(NN=C1CCCC1)OCC | > 200 | > 200 | 
Cc1cn(C2C=CCCC2O)c(=O)[nH]c1=O (stereo not drawn) | > 200 | > 200 | 
Nc1nnc(N)n1-n1c(N)nnc1N | > 200 | 166 | 
CC(C)(C)OC(=O)N1CCc2c(n(C/C=C/c3ccccc3)[nH]c2=O)C1 | > 200 | 19.1 | 
CC(C)=CCC/C(C)=C/CC/C(C)=C/C(O)c1ccccc1 (stereo not drawn) | > 50.1 | > 50.1 | 
NC(N)=NNCCOc1c(Cl)cccc1Cl | > 200 | 91.2 | 
COc1ccc(/C(Br)=C2\OC(=O)c3ccccc32)cc1 | > 200 | > 200 | 
CC(C)CC1C(=O)NCCC(NC(=O)C(Cc2ccc(OC(C)(C)C)cc2)NC(=O)OC(C)(C)C)C(=O)NC(Cc2ccccc2)C(=O)NC(Cc2ccccc2)NC1=O (stereo not drawn) | > 63.1 | 7.24 | 

SMILES | EC50 [µM] | IC50 [µM] | outcome
O=c1cc(-c2ccccc2)c2cc3c(=O)ccoc3cc2o1 | > 3.47 | > 3.47 | 
CN1B(c2ccccc2)N(C)C(=O)N(C)C1=O | > 200 | > 200 | 
O=S(=O)(O)CO | > 200 | 151 | 
CCCCNC(=S)OCCC(C)CCCC(C)C (stereo not drawn) |  |  | inactive
NC(=O)N/N=C/C(/C=N/NC(N)=O)[N+](=O)[O-] | > 112 | > 112 | 
CC(=O)NC1C(CO)OC(n2cnc([N+](=O)[O-])c2C(N)=O)C1O (stereo not drawn) | > 200 | > 200 | 
CC(=O)c1ccc(NC(=O)/C(CC(=O)/C=C/c2ccccc2)=N/NC(N)=S)cc1 | > 63.1 | > 63.1 | 
CCOC(=O)C1CCCCc2sc(N)c(C#N)c21 (stereo not drawn) | > 200 | 191 | 
CC(=O)OCCC(O[Si](c1ccccc1)(c1ccccc1)C(C)(C)C)C(C)(C)O (stereo not drawn) |  |  | inactive
CCOC(=O)c1cnc2[nH]c(=O)c3ccccc3n2c1=O |  |  | inactive
O=CNc1ccc(S(=O)(=O)c2ccc(NC=O)cc2)cc1 |  |  | inactive
COc1cc(C(=O)CC2(O)C(=O)Nc3c(Cl)cc(Cl)cc32)ccc1O (stereo not drawn) | > 468 | 91.2 | 
O=C(CN1C(=O)c2cccc3c(Br)ccc(c23)C1=O)c1ccc(F)cc1 | > 200 | 52.5 | 
OC1C[C@H](c2ccccc2)C2(C(O)c3ccccc3C2O)[C@@H](c2ccccc2)C1 (stereo partly drawn) | > 200 | 89.1 | 
O=C1CCC2(c3ccccc3)Nc3ccccc3N12 (stereo not drawn) | > 200 | 126 | 
Cc1ccccc1-c1c(N)nc(NC#N)nc1C(=O)Nc1ccccc1 |  |  | inactive
[C-]#[N+]CS(=O)(=O)c1ccc(C)cc1 | > 479 | > 479 | 
CC1(C)CC2(C)CC1CC2NC(=O)CCN1CCOCC1 (stereo not drawn) | > 851 | 676 | 
N#C/C(=C(\N)c1ccccc1)c1ccccc1 | > 200 | 97.7 | 
C(=C\c1ccnc2ccccc12)/c1ccnc2ccccc12 | > 13.2 | > 13.2 | 
CN=C(Nc1ccc(OC)c2ccccc12)SC | > 200 | > 100 | 
CCC(=O)c1cc(C(=O)C(=S)SC)cc(C(=O)C(=S)SC)c1 | 20 | 30.9 | 
COc1cc2c(cc1OC)C(CSC)Cc1cc(OC)c(OC)cc1N(C)CCC2 (stereo not drawn) | > 31.6 | > 31.6 | 

SMILES | EC50 [µM] | IC50 [µM] | outcome
CC(=O)O[C@]12CCCCC1C1(O)C(O)CCCC[C@H]12 (stereo partly drawn) | > 200 | > 200 | 
Cc1cn(C2CC(N(O)C3C4CC5CC(C4)CC3C5)C(CO)O2)c(=O)[nH]c1=O (stereo not drawn) | > 200 | 120 | 
O=S1OC(c2ccccc2)(c2ccccc2)C(c2ccccc2)(c2ccccc2)O1 | > 16.2 | > 16.2 | 
C=CC1CN2CCC1C/C2=N\O (stereo not drawn) |  |  | inactive
CNC(c1ccncc1)C(NC)c1ccncc1 (stereo not drawn) | > 200 | > 200 | 
CN(C)c1ccc(/C=C2\CC(C)(C)c3ccccc3C2=O)cc1 | > 2 | 0.363 | 
O=C(O)C1C=CC(c2ccc(Cl)cc2)=N1 (stereo not drawn) | > 200 | > 200 | 
C=C1CCC[C@@H]2[C@@](C)(CC3=CC(=O)C=CC3=O)C(C)CC[C@]12C (stereo partly drawn) | > 60.3 | 0.427 | 
COC(=O)CN1C(=O)c2cccc3cc(N)cc(c23)C1=O | > 200 | > 200 | 
CCN=C(N)CSS(=O)(=O)O | > 200 | > 200 | 
CCOC(=O)c1[nH]cc(C)c1-c1c[nH]c2ccccc12 | > 200 | 24.5 | 
Nc1ccc(C(=O)NN2C(=O)C(Cl)C2c2ccc([N+](=O)[O-])cc2)cc1 (stereo not drawn) | > 200 | 4.07 | 
Cc1nc2cc(C(F)(F)F)ccc2[nH]c1=O | > 200 | > 200 | 
N#Cc1nc(Cc2ccccc2)oc1N |  |  | inactive
COC(=O)c1noc2c1CSc1ccccc1-2 | > 263 | 123 | 
c1ccc(NC2(c3nnnn3C3CCCCC3)CCNCC2)cc1 | > 200 | 34.7 | 
O=C(C(=O)n1ncc(Cl)c(Cl)c1=O)n1ncc(Cl)c(Cl)c1=O | > 93.3 | 50.1 | 
Cc1cc(C)c(C(=O)c2ccccc2C(=O)O)c(C)c1 | > 200 | > 200 | 
CCCCCCCCCCCCC(CCCCCCCCCCCC)OP(=O)(O)O |  |  | inactive
CN(C)/C=N\c1ccnc(=O)[nH]1 | > 1320 | > 1320 | 
